From US20160229835A1, “NOVEL PYRIDYLOXYACETYL TETRAHYDROISOQUINOLINE COMPOUNDS USEFUL AS NAMPT INHIBITORS” (ELI LILLY AND COMPANY, priority 2013, published 2016)

Tests used:
[1] = test system: A2780 cells; assay: A2780 Proliferation Assay ±NAM (Nicotinamide); assay type: cell-based; details: Homo sapiens, A2780, 72 h, absence of NAM, read-out: IC50 (proliferation of A2780 cells in the absence of NAM)
Protocol: The purpose of this assay is to measure the ability of a compound to inhibit proliferation of A2780 cells (the NCI-DCTD Tumor repository) dependent on the NAMPT-mediated NAD^+ formation in the presence or absence of higher concentrations of NAM (10 mM) in vitro. The A2780 cell proliferation assay uses assay-ready frozen cells. To prepare assay-ready frozen A2780 cells, A2780 cells, an ovarian cancer cell line, are cultured in growth media containing RPMI 1640 (Gibco 30-2001) supplemented with 10% FBS, in T-150 flasks for 3-4 days. Cells are then treated with 4 mL of 0.25% (v/v) trypsin for 1 minute (Hyclone SH30042). Trypsin-treated cells are then diluted with 10 mL of growth media, and the cell slurry is gently mixed and then decanted to a centrifuge tube. Cells are counted and then pelleted by centrifugation at 1400 rpm for 5 minutes. After centrifugation the supernatant is removed and the cell pellets are re-suspended in GIBCO® RECOVERY™ Cell Culture Freezing Medium (Invitrogen 12648-010) at 2-5×10^6 cells/mL and then aliquoted at 1 mL volumes into cryovials. Cryovials are stored initially at −80° C. for 16 hours, and then transferred to liquid nitrogen for long term storage.
One day before the planned initiation of compound treatment portion of the assay, one vial of assay ready frozen cells is thawed, and the cells are washed with 50 mL of growth medium. Cells are counted and then diluted to 2.8×10^4 cells/mL and then plated at a rate of 2500 cells/well (90 μL per well) to BD Poly-D-Lysine, 96 well black plates (BD Biocoat 35-4640). Plates are then covered and incubated overnight under 5% CO2 at 37° C. The next day in a separate plate (V bottom Nunc 249946), a ten-point compound dilution series for each compound is prepared in growth media containing 2% DMSO (v/v, 0.2% final) with or without 100 mM NAM (10 mM final). Then 10 μL of compounds after a ten-point series dilution from either 2 or 0.1 μM (depending potency of each compound) to 50 pM or 5 pM (final) are added to the wells of the cell plates. Cell plates are covered and incubated for 72 hours under 5% CO2 at 37° C.
On the day of the viability assessment, one vial of GF-AFC substrate (CELL TITER-FLUOR™ Cell Viability Assay Kit, Promega G6081) is vortexed and the substrate is transferred to one vial of thawed CELL TITER-FLUOR™ Assay Buffer. The resulting CELL TITER-FLUOR™ reagent is then vortexed well to thoroughly dissolve the substrate. The CELL TITER-FLUOR™ reagent is then diluted (1:2) in growth medium and 50 μL of diluted CELL TITER-FLUOR™ reagent is added to each well of the cell plate. The cell plate is covered and incubated under 5% CO2 at 37° C. for 1-3 hours. Finally the cell plates are removed from the incubator and the well fluorescence is measured on an Envision® Multilabel Reader (Perkin Elmer, λeX 355/λem 495). Fluorescence from compound treated wells is compared to the no cell and no compound treatment control wells to calculate percent inhibition. The percent inhibition and ten-point compound concentration data is fit to a four-parameter logistic equation using ACTIVITYBASE 4.0 Equation 205. Each compound is tested 2-4 times in this assay.

[2] = test system: NAMPT-mediated NAD+/NMN formation in A2780 tumor cells; assay: Assay for NAD+/NMN Levels in A2780 Cells; assay type: cell-based; details: Homo sapiens, A2780, 24 h, 24 hours treatment, averaged
Protocol: A2780 (the NCI-DCTD Tumor repository) tumor cells, an ovarian cancer cell line, are cultured in RPMI 1640 (SH30255.01, Hyclone) supplemented with 10% FBS. […] FK866 (100 nM) is also included as a positive control for maximum inhibition (100%). Each compound is tested 1-4 times in this assay.
To assess NAD^+/NMN levels in the cell, A2780 cells grown in the above referenced 96-well plates are lysed with RIPA buffer (Pierce) followed by addition of 50 μL of 0.2 N HCl. The resulting cell lysates are incubated at 60° C. for 10 minutes and neutralized with 50 μL of 0.2 N NaOH. After centrifugation at 2000×g for 15 minutes, the supernatants (50 μL) are collected. The NAD^+/NMN assays are described by Putt and Hergenrother (Putt, K. S, and Hergenrother, P. J., An enzymatic assay for poly(ADP-ribose) polymerase-1 (PARP-1) via the chemical quantitation of NAD^+: application to the high-throughput screening of small molecules as potential inhibitors. Analytical Biochemistry, 2004, 326, 78-86) with modifications. The resulting lysates are mixed with 20 μL of 0.2 N KOH and 20 μL of 20% acetophenone, and incubated at 90° C. for 10 minutes followed by addition of 90 μL of formic acid. After incubation at 90° C. for 10 minutes, the resulting preparations are measured for their fluorescence at the excitation and emission wavelength of 360 and 450 nm, respectively as described by Putt and Hergenrother (2004).

| SMILES | IC50 [1] [nM] | IC50 [2] [nM] |
| --- | --- | --- |
| O=C(CC1CCCCO1)Nc1ccc2c(c1)CCN(C(=O)COc1cccnc1)C2 (single isomer, unassigned; isomer 2) [Example 13, N-[2-[2-(3-Pyridyloxy)acetyl]-3,4-dihydro-1H-isoquinolin-6-yl]-2-tetrahydropyran-2-yl-acetamide (isomer 2)] | < 677 | ≤ 195 |
| CC(c1ccc2c(c1)CCN(C(=O)COc1cccnc1)C2)N1CCN(C(=O)C2CCOCC2)CC1 (single isomer, unassigned; isomer 2) [Example 20, 2-(3-Pyridyloxy)-1-[6-[1-[4-(tetrahydropyran-4-carbonyl)piperazin-1-yl]ethyl]-3,4-dihydro-1H-isoquinolin-2-yl]ethanone (isomer 2)] | < 677 | ≤ 195 |
| O=C(COc1cccnc1)N1CCc2cc(NS(=O)(=O)c3ccccn3)ccc2C1 [Example 3, N-{2-[(Pyridin-3-yloxy)acetyl]-1,2,3,4-tetrahydroisoquinolin-6-yl}pyridine-2-sulfonamide] | < 677 | ≤ 195 |
| O=C(COc1cccnc1)N1CCc2cc(NS(=O)(=O)C3CCOCC3)ccc2C1 [Example 4, N-{2-[(Pyridin-3-yloxy)acetyl]-1,2,3,4-tetrahydroisoquinolin-6-yl}tetrahydro-2H-pyran-4-sulfonamide] | < 677 | ≤ 195 |
| O=C(COc1cccnc1)N1CCc2cc(NS(=O)(=O)CCC(F)(F)F)ccc2C1 [Example 5, 3,3,3-Trifluoro-N-{2-[(pyridin-3-yloxy)acetyl]-1,2,3,4-tetrahydroisoquinolin-6-yl}propane-1-sulfonamide] | < 677 | ≤ 195 |
| O=C(COc1cccnc1)N1CCc2cc(NS(=O)(=O)CC3CC3)ccc2C1 [Example 6, 1-Cyclopropyl-N-{2-[(pyridin-3-yloxy)acetyl]-1,2,3,4-tetrahydroisoquinolin-6-yl}methanesulfonamide] | < 677 | ≤ 195 |
| CC(C)OCCS(=O)(=O)Nc1ccc2c(c1)CCN(C(=O)COc1cccnc1)C2 [Example 7, 2-Isopropoxy-N-[2-[2-(3-pyridyloxy)acetyl]-3,4-dihydro-1H-isoquinolin-6-yl]ethanesulfonamide] | < 677 | ≤ 195 |
| O=C(COc1cccnc1)N1CCc2cc(NS(=O)(=O)C3CCN(C4COC4)CC3)ccc2C1 [Example 8, 1-(Oxetan-3-yl)-N-[2-[2-(3-pyridyloxy)acetyl]-3,4-dihydro-1H-isoquinolin-6-yl]piperidine-4-sulfonamide] | < 677 | ≤ 195 |
| CN1CCC(S(=O)(=O)Nc2ccc3c(c2)CCN(C(=O)COc2cccnc2)C3)CC1 [Example 9, 1-Methyl-N-{2-[(pyridin-3-yloxy)acetyl]-1,2,3,4-tetrahydroisoquinolin-6-yl}piperidine-4-sulfonamide] | < 677 | ≤ 195 |
| O=C(COc1cccnc1)N1CCc2cc(NS(=O)(=O)C3CCN(C(=O)C4CCOCC4)CC3)ccc2C1 [Example 10, N-[2-[2-(3-Pyridyloxy)acetyl]-3,4-dihydro-1H-isoquinolin-6-yl]-1-(tetrahydropyran-4-carbonyl)piperidine-4-sulfonamide] | < 677 | ≤ 195 |

Continued, values first:

| IC50 [1] [nM] | IC50 [2] [nM] | SMILES |
| --- | --- | --- |
| < 677 | ≤ 195 | CCC(C)(O)CC(=O)Nc1ccc2c(c1)CCN(C(=O)COc1cccnc1)C2 (stereo not drawn) [Example 11, 3-Hydroxy-3-methyl-N-[2-[2-(3-pyridyloxy)acetyl]-3,4-dihydro-1H-isoquinolin-6-yl]pentanamide] |
| < 677 | ≤ 195 | CC(O)(CC(=O)Nc1ccc2c(c1)CCN(C(=O)COc1cccnc1)C2)C(F)(F)F (stereo not drawn) [Example 12, 4,4,4-Trifluoro-3-hydroxy-3-methyl-N-[2-[2-(3-pyridyloxy)acetyl]-3,4-dihydro-1H-isoquinlin-6-yl]butanamide] |
| < 677 | ≤ 195 | CC(C)(C)CC(=O)Nc1ccc2c(c1)CCN(C(=O)COc1cccnc1)C2 [Example 14, 3,3-Dimethyl-N-{2-[(pyridin-3-yloxy)acetyl]-1,2,3,4-tetrahydroisoquinolin-6-yl}butanamide] |
| < 677 | ≤ 195 | CC(C)(O)CC(=O)Nc1ccc2c(c1)CCN(C(=O)COc1cccnc1)C2 [Example 15, 3-Hydroxy-3-methyl-N-{2-[(pyridin-3-yloxy)acetyl]-1,2,3,4-tetrahydroisoquinolin-6-yl}butanamide] |
| < 677 | ≤ 195 | O=C(COc1cccnc1)N1CCc2cc(CN3CCN(C(=O)C4CCOCC4)CC3)ccc2C1 [Example 16, 2-(Pyridin-3-yloxy)-1-[6-{[4-(tetrahydro-2H-pyran-4-ylcarbonyl)piperazin-1-yl]methyl}-3,4-dihydroisoquinolin-2(1H)-yl]ethanone] |
| < 677 | ≤ 195 | O=C(CN1CCOCC1)N1CCN(Cc2ccc3c(c2)CCN(C(=O)COc2cccnc2)C3)CC1 [Example 17, 2-(Morpholin-4-yl)-1-[4-({2-[(pyridin-3-yloxy)acetyl]-1,2,3,4-tetrahydroisoquinolin-6-yl}methyl)piperazin-1-yl]ethanone] |
| < 677 | ≤ 195 | CC(C)(O)CC(=O)N1CCN(Cc2ccc3c(c2)CCN(C(=O)COc2cccnc2)C3)CC1 [Example 18, 3-Hydroxy-3-methyl-1-[4-({2-[(pyridin-3-yloxy)acetyl]-1,2,3,4-tetrahydroisoquinolin-6-yl}methyl)piperazin-1-yl]butan-1-one] |
| < 677 | ≤ 195 | O=C(CC1CCOCC1)N1CCN(Cc2ccc3c(c2)CCN(C(=O)COc2cccnc2)C3)CC1 [Example 19, 2-(Pyridin-3-yloxy)-1-[6-{[4-(tetrahydro-2H-pyran-4-ylacetyl)piperazin-1-yl]methyl}-3,4-dihydroisoquinolin-2(1H)-yl]ethanone] |
